# Source: ChEMBL document CHEMBL4196052, “Rational modifications on a benzylidene-acrylohydrazide antiviral scaffold, synthesis and evaluation of bioactivity against Chikungunya virus” (Eur J Med Chem, 2018)
# Assays:
# [1] = tested on: Chikungunya virus; assay: Antiviral activity against Chikungunya virus Indian Ocean strain 899 infected in African green monkey Vero cells assessed as inhibition of viral-induced cytopathic effect measured on day 5 post infection by MTS/PMS assay; format: functional, organism-based, Indian Ocean 899; conditions: for EC50 / EC90: Chikungunya virus, Indian Ocean 899, Vero, 120 h
# [2] = Cytotoxicity against African green monkey Vero cells by MTS/PMS assay; format: cell-based; conditions: chlorocebus sabaeus
# [3] = Selectivity index, ratio of CC50 for African green monkey Vero cells to EC50 for Chikungunya virus Indian Ocean strain 899 infected in African green monkey Vero cells; format: toxicity; conditions: read-out: Ratio CC50/EC50
# [4] = tested on: Chikungunya virus; assay: Antiviral activity against Chikungunya virus Indian Ocean strain 899 infected in African green monkey Vero cells assessed as inhibition of viral-induced cytopathic effect by measuring concentration required for maximum activity measured on day 5 post infection by MTS/PMS assay; format: functional, Indian Ocean 899
SMILES,Imax [1] [%],EC50 [1] [µM],CC50 [2] [µM],selectivity ratio [3],Activity [4] [µM],EC90 [1] [µM]
C/C(=N\NC(=O)c1nc2ccccc2[nH]1)c1ccc(C2CCCCC2)cc1,83,2.6,6.2,2.4,4.3,
CC(C)(C)c1ccc(C(=O)CC(=O)N/N=C/c2ccc(O)cc2)cc1,87,7.2,14.7,2.3,7.9,8
Cc1ccc(/C=N/NC(=O)N/C=C/c2ccc(C(C)(C)C)cc2)cc1,50,246,192,0.8,187,> 298
C/C(=N\NC(=O)N/C=C/c1ccc(C(C)(C)C)cc1)c1ccc(C2CCCCC2)cc1,90,42.3,123,2.9,79,78.8
CC(C)(C)c1ccc(CCc2nnc(-c3ccc(O)cc3)o2)cc1,69,108,191,1.8,103,> 103
CCOc1ccc(/C=N/NC(=O)/C=C/c2ccc(C(F)(F)F)cc2)cc1OCC,75,48.9,84.1,1.7,69,
CC(C)(C)c1ccc(/C=C/NC(=O)N/N=C/c2ccc(O)cc2)cc1,89,5.6,10.4,1.9,7.4,7.5
Cc1ccc(/C=N/NC(=O)/C=C/c2ccc(-c3ccccc3)cc2)cc1,78,230,> 294,> 1.3,294,> 294
Cc1ccc(/C=N/NC(=O)/C=C/c2ccc(C(C)C)cc2)cc1,50,25.9,25,1,20,
CCOc1ccc(/C=N/NC(=S)NCCc2ccccc2)cc1OCC,90,5.9,109,18,9.3,9.8
Cc1ccc(-c2[nH]c3ccccc3c2/C=N/NC(=S)NCCc2ccccc2)cc1,100,1.8,7.8,4.4,2.5,2.5
Oc1ccc(/C=N/NC(=S)NCCc2ccccc2)cc1,67,48.3,87.8,1.8,51,
Cc1ccc(/C=N/NC(=O)/C=C/c2ccc(C(F)(F)F)cc2)cc1,61,96.3,203,2.1,99,> 150
C/C(=N\NC(=S)NCCc1ccccc1)c1ccc(C2CCCCC2)cc1,90,4.3,52.9,12.2,6,5.9
